Patent US11090285B2, “Treatment of circadian rhythm disorders” (Vanda Pharmaceuticals Inc., priority 2013, dated 2021)
Like-named read-outs stand apart in the source and are kept apart here.

What was measured:
[1] = Effect of smoking on pharmacokinetics of tasimelteon and metabolites; assay type: in vivo, human; set-up: AUC (inf) / AUC(0-inf): concentration or dose not given beside the values; conditions: for AUC (inf), Geometric Mean Ratio / Cmax, Geometric Mean Ratio / t½, Geometric Mean Ratio: Smokers vs Non-Smokers; for half-life: read-out: t½ (converted)
Text: Smokers were defined as those smoking 10 or more cigarettes per day. Non-smokers were defined as those smoking no cigarettes per day.

[2] = Pharmacokinetics on co-administration of tasimelteon and fluvoxamine; assay type: in vivo, human; conditions: for AUC (inf), Geometric Mean Ratio / Cmax, Geometric Mean Ratio / t½, Geometric Mean Ratio: Day 8 vs Day 1; for half-life: read-out: t½ (converted)
Protocol: Twenty-four healthy male or female subjects between the ages of 18 and 55 years of age (inclusive) who were non-smokers with a body mass index (BMI) of ≥18 and ≤35 kg/m2 participated in this open-label, single-sequence study conducted at one site. On day 1, subjects were administered […] of tasimelteon.

[3] = in vivo; cited from earlier work
[4] = human, in vivo, Non-Smokers, read-out: Cmax
[5] = human, in vivo, Smokers (10 or more cigarettes per day), read-out: Cmax
[6] = human, in vivo, Smokers, read-out: Tmax
[7] = both sexes, human, in vivo, Day 1, 5.667 mg tasimelteon alone, read-out: Cmax
[8] = both sexes, human, in vivo, Day 1, 5.667 mg tasimelteon alone, read-out: Tmax
[9] = both sexes, human, in vivo, Day 1, 5.667 mg tasimelteon alone
[10] = Smokers (10 or more cigarettes per day)
[11] = Day 1, 5.667 mg tasimelteon alone
[12] = Day 8, 5.667 mg tasimelteon + 50 mg fluvoxamine

| SMILES | AUC (inf), Geometric Mean Ratio [1] [%] | Cmax, Geometric Mean Ratio [1] [%] | t½, Geometric Mean Ratio [1] [%] | AUC (inf), Geometric Mean Ratio [2] [%] | Cmax, Geometric Mean Ratio [2] [%] | t½, Geometric Mean Ratio [2] [%] | AUC (inf) ([1]; Non-Smokers) [ng·h/mL] | Cmax ([1]; Non-Smokers) [ng/mL] | Tmax ([1]; Non-Smokers) [h] | t½ ([1]; Non-Smokers) [h] | AUC (inf) ([1]; Smokers) [ng·h/mL] | Tmax ([1]; Smokers) [h] | t½ ([1]; Smokers) [h] | Cmax [1, 10] [ng/mL] | AUC (inf) [2, 11] [ng·h/mL] | Cmax [2, 11] [ng/mL] | Tmax [2, 11] [h] | t½ [2, 11] [h] | AUC (inf) [2, 12] [ng·h/mL] | Cmax [2, 12] [ng/mL] | further results |
| --- | --- | --- | --- | --- | --- | --- | --- | --- | --- | --- | --- | --- | --- | --- | --- | --- | --- | --- | --- | --- | --- |
| CCC(=O)NC[C@@H]1C[C@H]1c1cccc(O)c1CC(=O)O [M9] | 74.36 | 77.18 | 85.40 | 122.56 | 64.94 | 328.02 |  |  |  |  |  |  |  |  |  |  |  |  |  |  | AUC(0-inf) ([1]; human, in vivo, Non-Smokers): 406 ± 75 ng·h/mL; Cmax [1, 4]: 279 ± 82.8 ng/mL; half-life ([1]; human, in vivo, Non-Smokers): 1.38 ± 0.45 h; AUC(0-inf) ([1]; human, in vivo, Smokers): 315 ± 112 ng·h/mL; Cmax [1, 5]: 230 ± 118 ng/mL; Tmax [1, 6]: 0.75 h; half-life ([1]; human, in vivo, Smokers): 1.15 ± 0.17 h; Cmax [2, 7]: 67.6 ± 19.1 ng/mL; Tmax [2, 8]: 0.5 h; half-life [2, 9]: 1.14 ± 0.29 h |
| CCC(=O)NC[C@@H]1C[C@H]1c1cccc2c1CC(O)O2 (stereo partly drawn) [M13] | 97.31 | 99.49 | 77.51 | 125.05 | 69.31 | 349.81 | 337 ± 94 | 270 ± 71 | 0.50 | 1.18 ± 0.50 | 329 ± 99 | 0.75 | 0.89 ± 0.26 | 272 ± 86 | 106 ± 32.6 | 87.5 ± 24.4 | 0.50 | 1.00 ± 0.30 | 133 ± 32.9 | 63.6 ± 24.6 | Tmax [2, 12]: 0.50 h; t½ [2, 12]: 3.51 ± 1.18 h |
| CCC(=O)NCC1CC1c1cccc2c1C(O)CO2 (stereo not drawn) [M12] | 84.87 | 115.53 | 73.31 | 274.81 | 92.74 | 241.02 | 679 ± 433 | 108 ± 29 | 1.00 | 3.05 ± 1.73 | 526 ± 193 | 1.00 | 2.11 ± 0.67 | 123 ± 28 | 189 ± 90.8 | 31.0 ± 7.23 | 0.88 | 3.03 ± 1.02 | 435 ± 109.3 | 30.8 ± 17.6 | Tmax [2, 12]: 3.00 h; t½ [2, 12]: 7.03 ± 3.27 h |
| CCC(=O)NC[C@@H]1C[C@H]1c1cccc(O)c1CCO [M11] | 81.84 | 84.50 | 94.13 | 126.03 | 68.71 | 248.35 |  |  |  |  |  |  |  |  |  |  |  |  |  |  | AUC(0-inf) ([1]; human, in vivo, Non-Smokers): 154 ± 58 ng·h/mL; Cmax [1, 4]: 54.9 ± 15.1 ng/mL; half-life ([1]; human, in vivo, Non-Smokers): 2.14 ± 0.94 h; AUC(0-inf) ([1]; human, in vivo, Smokers): 124 ± 42 ng·h/mL; Cmax [1, 5]: 46.2 ± 11.9 ng/mL; Tmax [1, 6]: 1 h; half-life ([1]; human, in vivo, Smokers): 1.99 ± 0.85 h; Cmax [2, 7]: 15.8 ± 5.4 ng/mL; Tmax [2, 8]: 1 h; half-life [2, 9]: 1.61 ± 0.55 h |
| CCC(=O)NCC1CC1c1cccc2c1C(O)CO2 (stereo not drawn) [M14] | 42.98 | 60.17 | 65.09 | 944.73 | 264.58 | 243.34 | 22.0 ± 24.2 | 6.18 ± 3.15 | 0.75 | 1.84 ± 1.22 | 9.45 ± 11.88 | 0.75 | 1.13 ± 0.54 | 3.72 ± 1.86 | 4.54 ± 2.39 | 1.20 ± 0.40 | 0.75 | 2.18 ± 0.97 | 42.6 ± 27.3 | 3.20 ± 1.49 | Tmax [2, 12]: 4.00 h; t½ [2, 12]: 4.98 ± 1.89 h |
| COc1ccc2[nH]cc(CCNC(C)=O)c2c1 [Melatonin] |  |  |  |  |  |  |  |  |  |  |  |  |  |  |  |  |  |  |  |  | Tmax [3]: ≥ 2 h |
